Assay results published in paper PMC7906907, “Targeting STAT3 by a small molecule suppresses pancreatic cancer progression” (Oncogene, 2021).

Experiments:
[1] = target: His-STAT3^127-722 protein (Homo sapiens, UniProt P40763); experiment: Microscale thermophoresis (MST) assay, STAT3^127–722; format: binding; set-up: made in house
Description: Fig. 3 N4 interacts with the STAT3-SH2 domain and interferes with the STAT3-EGFR and STAT3-NF-κB interactions. […] C–E The binding between N4 and STAT3 was examined in (C) SPR and (D) MST experiments. His-STAT3^127-722 protein was purified and used to examine the affinity between STAT3 and N4. (E) The binding between N4 and STAT3^SH2 was confirmed in MST assays. STAT3-SH2 protein was purified and labeled. N4 was serially diluted and mixed with equal volumes of labeled STAT3^SH2 protein. The MST signal was measured, and the data were analyzed by MO analysis software. F, G The FLAG-tag and HA-tag STAT3 expression plasmid was transfected into 293 T cells, followed by the addition of the indicated concentrations of N4. After 24 h, cells were lysed, and immunoprecipitation experiments were performed as described in Materials and Methods. H N4 represses STAT3 dimerization in pancreatic cancer cells. I After a 24 h treatment with 2 μM N4, pancreatic cancer cells were stimulated with IL-6 for 30 min. Cell lysates were immunoprecipitated with STAT3 overnight. […]
The MST assay was previously described. Binding affinities of N4 with the purified His-STAT3-SH2 were measured using the Monolith NT.115 device (NanoTemper Technologies). […] The samples were then loaded into premium capillaries (NanoTemper Technologies) and measured using the Monolith NT.115 device. […]

[2] = system: PAN02-luc; experiment: Orthotopic pancreatic cancer tumor model; format: in vivo, C57BL/6 mice
Description: Fig. 7 N4 inhibits tumor growth in an orthotopic pancreatic cancer model. C57BL/6 mice were injected the tail of the pancreas with luciferase-expressing PAN02 cells (PAN02-luc) in matrigel and tumor growth was assessed (A) and quantified (B) by bioluminescent imaging weekly. Data represent the mean ± SD; *P < 0.05, **P < 0.01, ***P < 0.001, ****P < 0.0001, n.s. not significant by one-way ANOVA followed by multiple-comparison tests. (n = 5 mice per group) C After 4 weeks, mice were sacrificed and the pancreas were imaged. The tumor of pancreas were photographed (D) and weighted (E), scale bar, 0.5 cm.
Briefly, specimens of tumor tissue from xenograft models and orthotopic models were fixed with 4% paraformaldehyde solution at 4 °C overnight. […] Then, according to the manufacturer’s instructions (SK-4100; Vector laboratories), the avidin-biotin peroxidase complex was used, followed by colorimetric detection using DAB. Finally, hematoxylin was used to counterstain the sections and coverslips were mounted.
C57BL/6 mice, male, 4–6 week old were obtained from the Animal Center of East China Normal University. All animal experimental protocols were approved by the Animal Investigation Committee of the Institute of Biomedical Sciences, East China Normal University. PAN02 cells that stably expressed luciferase (PAN02-luc) were embedded in Matrigel (BD Biosciences) were injected with 5 × 10^5 in the tail of the pancreas. On the next day (day 0), the mice were subjected to bioluminescent imaging and divided into four groups according to the luciferase luminescence value. Mice were treated with intraperitoneal injection of indicated compound or drug. Tumor growth was analyzed once a week by an IVIS Imaging System (Xenogen Corporation, Alameda, CA) and end of study tumor weight was determined immediately postmortem. […] Images and measurements of bioluminescent signals were acquired and analyzed using Living Image and Xenogen software.

[3] = target: T1, STAT3^127–722 protein (Homo sapiens, UniProt P40763); experiment: Surface plasmon resonance (SPR) assay; format: binding
T1 construct: made in house
T1 sequence (P40763 127-722): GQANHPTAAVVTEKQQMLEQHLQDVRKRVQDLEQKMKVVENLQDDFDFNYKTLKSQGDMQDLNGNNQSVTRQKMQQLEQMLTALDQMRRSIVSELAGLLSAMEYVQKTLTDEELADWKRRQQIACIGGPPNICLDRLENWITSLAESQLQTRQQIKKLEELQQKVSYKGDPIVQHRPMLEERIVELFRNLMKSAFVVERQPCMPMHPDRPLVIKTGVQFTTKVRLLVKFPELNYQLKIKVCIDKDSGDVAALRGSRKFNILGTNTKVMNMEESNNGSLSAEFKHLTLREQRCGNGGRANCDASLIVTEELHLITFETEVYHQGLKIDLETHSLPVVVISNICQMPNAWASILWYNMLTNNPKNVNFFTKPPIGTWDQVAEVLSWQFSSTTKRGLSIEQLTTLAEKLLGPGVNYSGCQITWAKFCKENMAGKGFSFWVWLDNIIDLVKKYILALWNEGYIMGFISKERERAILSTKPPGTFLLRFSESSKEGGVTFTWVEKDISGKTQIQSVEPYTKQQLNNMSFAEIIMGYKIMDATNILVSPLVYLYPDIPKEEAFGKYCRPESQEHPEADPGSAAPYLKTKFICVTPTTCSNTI
Description: Surface plasmon resonance (SPR) analysis was conducted with a Biacore T200 instrument (GE Healthcare) with CM5 sensor chip (GE Healthcare). To test N4 binding of STAT3^127–722 protein, serially diluted concentrations of N4 were injected into the flow system. Experiments were conducted using phosphate buffered saline (PBS) and the analyte was injected at the flow rate of 30 μL/min. The association time was 60 s and the dissociation time was 30 s. Since N4 was dissolved in PBS containing 5% dimethyl sulfoxide and a solvent correction assay was performed to adjust the results. STAT3^127–722 protein was immobilized on the sensor chip (CM5) using the amine-coupling method according to standard protocols. N4 or Stattic at various concentrations were injected into the flow system. […] The KD values were calculated with the kinetics and affinity analysis option of Biacore T200 plus evaluation software (version 3.0).

His-STAT3^127-722 protein, sequence (P40763 127-722): as above

COc1cc2c(cc1C(=O)Nc1cccc3cccnc13)CCC1C(C)(C)C(=O)C(C#N)=C[C@]21C (stereo partly drawn) [N4]
Kd ([1]; STAT3^127-722, value printed in figure): 2020 nM
Kd ([1]; STAT3^127–722): 2020 nM
expression of stromal cells marker α-SMA in vivo ([2]; IHC of tumor tissue): drastically suppressed
expression of vimentin in vivo ([2]; IHC of tumor tissue): significantly suppressed
number of TAM (F4/80+ macrophages) ([2]; IHC of tumor tissue): significantly decreased
tumor volume suppressed compared with the control group ([2]; week 4, 10 mg/kg/d): 97.34%
tumor volume suppressed compared with the control group ([2]; week 4, 20 mg/kg/d): 98.88%
Kd ([3]; SPR, STAT3^127–722 immobilized on CM5 chip, 25 °C): 1040 nM
improvement of binding affinities to STAT3 than Stattic ([3]; in FP and SPR experiments): approximately tenfold improvement
